Consider eight compounds from publication PMC3694096, “Development of Novel In Vivo Chemical Probes to Address CNS Protein Kinase Involvement in Synaptic Dysfunction” (PLoS ONE, 2013).

Data set [1] is described as follows: Dose escalation adverse event screen (SHIRPA based). Format: in vivo. The note with it: highest dose at which no adverse events are observed in dose escalation studies, mice. From the text:
Novel compounds were screened in vivo using a standard dose escalation screen in mice coupled with clinical observation and testing based on the SHIRPA mouse phenotype assay paradigm. To obtain insight into the potential for off-target activity with the largest known family of small molecule drug targets, G-protein coupled receptors (GPCRs), a cell-based functional screen of the final title compounds was done. The Millipore® GPCR Profiler screen employs the ChemiScreen GPCR stable cell line technology used for real-time calcium flux FLIPR assays on a panel of 158 GPCRs to detect both antagonists and agonists. The NCBI Entrez identifier for each GPCR is provided at the vendor site (www.millipore.com). Follow-up validation of any initial hits as being true positives or negatives was done as described above for protein kinases by testing the concentration dependence of any cellular effects. No validated hits were detected.

Data set [2] concerns the target casein kinase 1δ (CK1δ), p38βMAPK and other kinases. The note with it: cited from earlier work.
For a further data set, the system named is p38MAPKs. Further details: method as in PMID 17079143. The note with it: cited from earlier work.

With `CN(C)c1cc(-c2ccncc2)c(-c2ccccc2)nn1` [MW105, N, N-dimethyl-6-phenyl-5-(pyridin-4-yl)pyridazin-3-amine], in data set [1], the “Dose Escalating Adverse Event Screen / Adverse Pharm Dose” value is reported as > 200 mg/kg.
Turning to `COc1nccc(-c2c(-c3ccc(F)cc3)ncn2C2CCC(O)CC2)n1` (centres unmarked) [SB239063], the “kinase cross-over” value in data set [2] is “inhibit casein kinase 1δ (CK1δ), p38βMAPK and other kinases”.
`c1ccc(-c2nnc(N3CCN(c4ncccn4)CC3)cc2-c2ccncc2)cc1` [MW069a]: in data set [1], the “Dose Escalating Adverse Event Screen / Adverse Pharm Dose” value turned out to be 60 mg/kg.
As for `CCN(CC)c1cc(-c2ccncc2)c(-c2ccccc2)nn1` [MW177], the “Dose Escalating Adverse Event Screen / Adverse Pharm Dose” value in data set [1] is recorded as > 200 mg/kg.
Turning to `CN1CCN(c2cc(-c3ccncc3)c(-c3ccccc3)nn2)CC1` [MW066], the “Dose Escalating Adverse Event Screen / Adverse Pharm Dose” value in data set [1] is listed as > 200 mg/kg.
The same measure, in the same setting: the figure for `CCCN(C)c1cc(-c2ccncc2)c(-c2ccccc2)nn1` [MW207] is > 200 mg/kg.
For `c1ccc(-c2cc(-c3ccncc3)c(N3CCN(c4ncccn4)CC3)nn2)cc1` [MW01-6-189WH], the “interaction with p38MAPKs” value in the data set on p38MAPKs is reported as “does not interact with p38MAPKs”.
On to `C[S+]([O-])c1ccc(-c2nc(-c3ccncc3)c(-c3ccc(F)cc3)[nH]2)cc1` (centres unmarked) [SB203580], for which, in data set [2], the “kinase cross-over” value was “inhibit casein kinase 1δ (CK1δ), p38βMAPK and other kinases”.
